# Entries after “also recorded” stand apart in the source; their conditions may differ.
# Experiments:
# [1] = target: T1, ACK-1 kinase (GST-ACKD, amino acids 101-441) (Homo sapiens, UniProt Q07912); experiment: In vitro kinase assay of GST-ACKD with MBP as substrate; assay type: biochemical; conditions: FIG. 4C dose response, FIG. 4D inhibitors at 200 nmol/L
# T1 construct: made in house; host or cells: Escherichia coli BL21 (pGEX-2TH vector)
# Method: Escherichia coli BL21 cells transformed with pGEX-ACKD were grown at 30° C. to early logarithmic phase and protein expression was induced by adding 0.1 mmol/L isopropyl-L-thio-β-D-galactopyranoside. After 3 hours of incubation, cells were harvested, resuspended in lysis buffer [50 mmol/L Tris (pH 7.5), 0.73 mol/L sucrose, 5 mmol/L MgCl2, 0.5% (v/v) NP40], and disrupted by sonication. Cells were centrifuged at 10,000×g for 30 minutes at 4° C. The supernatant was applied to the glutathione-Sepharose column equilibrated with WED buffer [20 mmol/L Tris (pH 7.5), 2 mmol/L MgCl2, 1 mmol/L DTT] followed by washing with WED buffer. GST-ACKD was eluted with 5 mmol/L glutathione solution in 50 mmol/L Tris (pH 9.6). The eluate was dialyzed in WED buffer overnight and concentrated on a sucrose gradient. The expected size of the fusion protein (GST-ACKD) was confirmed by SDS-PAGE (data not shown), and the protein was used for kinase assays as described below.
# The purified GST-ACKD (˜5 μg per reaction) was incubated in kinase reaction buffer [50 mmol/L HEPES-KOH (pH 7.2), 10 mmol/L magnesium acetate, 5 mmol/L DTT] containing 7.5 μg MBP, 100 μmol/L ATP, and 4 μCi [γ-^33P]ATP for 10 minutes at 30° C. Reactions were stopped by addition of 5× Laemmli SDS sample buffer. Proteins were separated by SDS-PAGE, and radioactivity incorporated into the substrate was quantified by using the Kodak Imaging Station 2000R. For kinase inhibition experiments, GST-ACKD was preincubated with individual inhibitors in kinase buffer or kinase buffer alone (control) before the addition of MBP following the same protocol as described above. Experiments were done in triplicate.
# Several compounds were screened to examine their potency in inhibiting the kinase activity of ACK in vitro. […]
# Different kinase inhibitors were added to the ACK-1 kinase reaction as described above in General Procedures. Phosphorylation of MBP was determined by SDS-PAGE and autoradiography. The level of MBP phosphorylation was determined by scanning MBP bands using Kodak Imaging Station 2000R and plotted as arbitrary units. […]
# ACK-1 = target: T2, ACK-1 (Mus musculus, UniProt O54967); experiment: ACK-1 autophosphorylation in v-Ha-Ras-transformed cells (immunoprecipitation, anti-phosphotyrosine Western blot); assay type: cell-based; conditions: 25 μmol/L, 48 hours, FIG. 5A
# T2 construct: endogenous in cells; host or cells: v-Ha-Ras-transformed NIH 3T3 cells (and parental NIH 3T3 in the siRNA experiment)
# T2 sequence (O54967 whole entry): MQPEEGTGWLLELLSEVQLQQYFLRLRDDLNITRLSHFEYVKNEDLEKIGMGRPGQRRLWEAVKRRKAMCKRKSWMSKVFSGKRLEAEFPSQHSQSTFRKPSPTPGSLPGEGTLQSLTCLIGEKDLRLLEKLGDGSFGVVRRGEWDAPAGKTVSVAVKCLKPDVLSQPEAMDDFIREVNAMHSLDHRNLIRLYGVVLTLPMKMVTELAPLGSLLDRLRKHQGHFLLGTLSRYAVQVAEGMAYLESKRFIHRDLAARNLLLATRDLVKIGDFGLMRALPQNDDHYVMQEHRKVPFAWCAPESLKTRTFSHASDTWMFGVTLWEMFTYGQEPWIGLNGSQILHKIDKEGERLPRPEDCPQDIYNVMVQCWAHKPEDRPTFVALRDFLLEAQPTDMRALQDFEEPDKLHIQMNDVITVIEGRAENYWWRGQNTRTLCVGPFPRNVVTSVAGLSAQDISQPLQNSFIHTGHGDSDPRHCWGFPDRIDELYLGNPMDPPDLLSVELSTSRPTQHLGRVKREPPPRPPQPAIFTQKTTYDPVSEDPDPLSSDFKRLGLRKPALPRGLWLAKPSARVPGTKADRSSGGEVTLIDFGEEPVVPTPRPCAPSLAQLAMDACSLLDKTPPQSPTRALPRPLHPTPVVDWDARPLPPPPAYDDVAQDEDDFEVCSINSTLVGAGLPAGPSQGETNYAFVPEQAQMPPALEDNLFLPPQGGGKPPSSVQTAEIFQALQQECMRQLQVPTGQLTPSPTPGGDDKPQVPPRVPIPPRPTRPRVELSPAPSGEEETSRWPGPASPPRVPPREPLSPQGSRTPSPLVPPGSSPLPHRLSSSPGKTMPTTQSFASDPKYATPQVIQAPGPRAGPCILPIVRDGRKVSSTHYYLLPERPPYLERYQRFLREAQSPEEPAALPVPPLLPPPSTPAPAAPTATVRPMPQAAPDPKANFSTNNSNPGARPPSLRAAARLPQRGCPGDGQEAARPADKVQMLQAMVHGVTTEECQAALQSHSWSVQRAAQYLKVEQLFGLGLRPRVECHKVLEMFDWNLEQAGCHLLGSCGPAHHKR
# Method: For immunoprecipitation, cells (2×10^6 per sample) were lysed in a buffer containing 1% Triton X-100, 20 mmol/L HEPES (pH 7.4), 150 mmol/L NaCl, 10% glycerol, 1.5 mmol/L MgCl2, 1 mmol/L EGTA, 10 mmol/L sodium pyrophosphate, 0.2 mmol/L sodium orthovanadate, 50 mmol/L NaF, 0.5 mg/mL phenylmethylsulfonyl fluoride, and 0.5 μg/mL aprotinin. Each lysate was incubated with ACK-1 antibody (10 μg/sample) for 4 hours at 4° C. Protein A-Sepharose CL-4B (50 μL) was added to the lysate followed by additional incubation for 2 hours at 4° C. Sepharose beads were collected by centrifugation at 1,000×g for 5 minutes (Eppendorf microfuge). The pellets were washed thrice with lysis buffer using the same protocol. Protein bound to Sepharose beads was recovered in Laemmli SDS sample buffer. […]
# To study the effects of ACK on cell proliferation, 2×10^4 cells per well were seeded into 24-well plates and cultured under standard cell culture conditions. […] Cell numbers were counted with a hemocytometer. […]
# (§1) The effect of PD158780 and PD157432 on the phosphorylation of ACK-1 was investigated. v-Ha-Ras-transformed cells were cultured in DMEM containing 10% FCS. […] For growth inhibition studies, cells were trypsinized and counted every 24 hours. […]
# [2] = test system: v-Ha-Ras-transformed NIH 3T3 cells; experiment: Growth of v-Ha-Ras-transformed cells treated with kinase inhibitors (cell counting); assay type: cell-based; conditions: kinase inhibitor added after overnight culture; cells counted (every 24 hours or after 48 hours)
# Method: To study the effects of ACK on cell proliferation, 2×10^4 cells per well were seeded into 24-well plates and cultured under standard cell culture conditions. After overnight culture, individual kinase inhibitors (at indicated concentration) or DMSO (control) were added to the culture. Cells were collected by trypsinization after 48 hours. Cell numbers were counted with a hemocytometer. To study ACK phosphorylation, cells were lysed with a buffer containing 1% Triton X-100, 20 mmol/L HEPES (pH 7.4), 150 mmol/L NaCl, 10% glycerol, 1.5 mmol/L MgCl2, 1 mmol/L EGTA, 10 mmol/L sodium pyrophosphate, 0.2 mmol/L sodium orthovanadate, 50 mmol/L NaF, 0.5 mg/mL phenylmethylsulfonyl fluoride, and 0.5 μg/mL aprotinin. Total protein (˜1 mg) was used for immunoprecipitation of ACK-1.
# as §1, with “FCS. Cells were treated with solvent (DMSO), PD 158780 (25 μmol/L), or PD157432 (25 μmol/L) for 48 hours. Cells were incubated under standard cell culture conditions.” for “FCS.”
# The effect of ST021169 and ST038325 on v-Ha-Ras-transformed NIH 3T3 cell growth was investigated. […] After 48 hours, the cells were trypsinized and counted with a hemocytometer. […]
# T1 sequence (Q07912 38-378 H250G): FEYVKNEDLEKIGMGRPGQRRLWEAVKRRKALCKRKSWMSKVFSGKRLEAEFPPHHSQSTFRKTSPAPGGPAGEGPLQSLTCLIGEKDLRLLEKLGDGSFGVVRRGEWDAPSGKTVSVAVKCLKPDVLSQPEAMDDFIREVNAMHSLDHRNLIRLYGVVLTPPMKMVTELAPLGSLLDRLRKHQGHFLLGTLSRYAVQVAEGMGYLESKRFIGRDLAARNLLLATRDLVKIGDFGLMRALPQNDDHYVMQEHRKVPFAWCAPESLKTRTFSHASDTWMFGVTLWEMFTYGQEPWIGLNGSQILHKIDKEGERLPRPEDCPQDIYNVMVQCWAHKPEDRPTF
smiles,measurement,setting,value
CNc1cc2c(Nc3cccc(Br)c3)ncnc2cn1 [PD158780],inhibition of kinase activity of ACK (MBP phosphorylation),[1],inhibited ACK strongly and in a dose-dependent manner; also recorded: strongest inhibitory activity
same,inhibition of ACK-1 autophosphorylation,ACK-1,inhibited ACK-1 autophosphorylation to a much stronger extent than did PD157432
same,inhibition of v-Ha-Ras-transformed NIH 3T3 cell growth,[2],inhibited in a dose-dependent manner
